In patent publication US20230355626A1, “INHIBITORS OF HUMAN IMMUNODEFICIENCY VIRUS REPLICATION” (VIIV HEALTHCARE UK (NO.5) LIMITED, priority 2020, published 2023):

Experiments:
[1] = system: recombinant NL4-3 virus; experiment: HIV cell culture assay (antiviral activity, luciferase readout in infected MT-2 cells); assay type: cell-based; conditions: Human immunodeficiency virus 1, NL43, MT2
How it was run: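 MT-2 cells infected for 4-5 days with 293T-derived NL4-3 reporter virus (nef partly replaced by Renilla luciferase) in serial compound dilutions. Live-cell luciferase read-out. EC50 from median effect equation fit.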

[2] = Compound cytotoxicity, XTT-based colorimetric assay; assay type: cell-based; conditions: human; uninfected MT2 cells, day 4, XTT assay
How it was run: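 Cells seeded as for the antiviral assay but left uninfected (MT2). Compound exposure continued to day 4. XTT reagent added and colour read. CC50 calculated.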

| Structure (SMILES) | EC50 [1] | CC50 at 4 day [2] |
| --- | --- | --- |
| Cn1nc(NS(C)(=O)=O)c2c(Cl)ccc(-n3c([C@H](Cc4cc(F)cc(F)c4)NC(=O)Cn4nc(C(F)F)c5c4C(F)(F)[C@@H]4C[C@H]54)nc4nc(OCC(F)(F)C(F)(F)C(F)(F)C(F)(F)F)ccc4c3=O)c21 (atropisomer, axis not shown; (P)) [Example 40, N-((S)-1-((3P,3P)-3-(4-chloro-1-methyl-3-(methylsulfonamido)-1H-indazol-7-yl)-7-((2,2,3,3,4,4,5,5,5-nonafluoropentyl)oxy)-4-oxo-3,4-dihydropyrido[2,3-d]pyrimidin-2-yl)-2-(3,5-difluorophenyl)ethyl)-2-((3bS,4aR)-3-(difluoromethyl)-5,5-difluoro-3b,4,4a,5-tetrahydro-1H-cyclopropa[3,4]cyclopenta[1,2-c]pyrazol-1-yl)acetamide] | 0.31 nM | > 100 nM |
| Cn1nc(NS(C)(=O)=O)c2c(Cl)ccc(-n3c([C@H](Cc4cc(F)cc(F)c4)NC(=O)Cn4nc(C(F)F)c5c4C(F)(F)[C@@H]4C[C@H]54)nc4nc(OCCC5CC5(F)F)ccc4c3=O)c21 (stereo partly drawn) [Example 38, N-((1S)-1-((3P,3P)-3-(4-chloro-1-methyl-3-(methylsulfonamido)-1H-indazol-7-yl)-7-(2-(2,2-difluorocyclopropyl)ethoxy)-4-oxo-3,4-dihydropyrido[2,3-d]pyrimidin-2-yl)-2-(3,5-difluorophenyl)ethyl)-2-((3bS,4aR)-3-(difluoromethyl)-5,5-difluoro-3b,4,4a,5-tetrahydro-1H-cyclopropa[3,4]cyclopenta[1,2-c]pyrazol-1-yl)acetamide] | 0.037 nM | > 100 nM |
